Laboratory results reported in patent US10617118B2, “Low foam surfactant composition and methods of making the same” (Momentive Performance Materials Inc., priority 2015, dated 2020).

Assays:
[1] = Spreading: spread diameter of 10 μL drop on polystyrene Petri-dish; assay type: physicochemical; details: Table 11, after 30 seconds
Method: Spreading was determined using between 0.1% and 0.4% (actives) surfactant. Solutions were prepared in Milli-Pore water (deionized) where a 10 μL drop was placed on a polystyrene surface (Petri-dish) and the spread diameter, in mm is determined after 30 seconds.

[2] = tested on: Velvetleaf (Abutilion theophrasti); assay: Effect of adjuvant on glyphosate-IPA efficacy on velvetleaf (spray application); assay type: in vivo; details: 1.0 wt % Gly-IPA, adjuvant 0.1 wt %, 100 L/ha, simulated rain 2 hours after treatment, visual scale of 0-100%
Method: Velvetleaf plants were grown from seed indoor, under full sunlight intensity lamps, in individual pots, and then thinned to one plant per pot. Plants were fertilized as necessary (NPK 20-20-20). Glyphosate spray applications were applied when the plants reached the 3-4 true leaf stage.
Velvetleaf was treated with 1.0 wt % Gly-IPA, with and without adjuvant, at a spray volume equivalent to 100 L/ha. When adjuvant was used, it was included in the spray at 0.1 wt %. Applications were made using a track sprayer with a TeeJet 8002 nozzle. Simulated rain (2.5 cm) was applied 2 hours after treatment. Glyphosate efficacy was determined 7 and 14 days after treatment (DAT). using a visual scale of 0-100%, where 0 indicates no effect and 100 indicates total weed control.

Spread Diameter (mm) 0.2 Wt % [1] [mm] | Molecule | Glyphosate-IPA efficacy on velvetleaf, 7 DAT ([2]; 7 DAT) [%] | Glyphosate-IPA efficacy on velvetleaf, 14 DAT ([2]; 14 DAT) [%]
7 | Triton X-100 |  | 
 | CC(C)N.O=C(O)CNCP(=O)(O)O [None, glyphosate-isopropylamine] | 33 | 37
